The target of the experiment is T1, PI3Kβ (Homo sapiens, UniProt P42338).
T1 construct: made in house
Nature of the experiment: HTRF in vitro profiling assay for PI3K inhibition, beta isoform. The format is biochemical. The conditions noted are these: one experimental run or average of two or more runs; 200 pM enzyme, 100 uM ATP, 10 uM PIP2; read-out: P13KB PIC50 MEAN (converted). The source says: The PI3-Kinase profiling assays were developed to measure the compound-dependent inhibition of the alpha, beta, delta, and gamma isoforms of PI3K in an in vitro catalytic assay. This assay was developed and optimized from a kit produced by Upstate (Millipore catalog #33-017). Briefly, this procedure utilizes a pre-formed HTRF (Homogeneous Time-Resolved Fluorescence energy transfer) complex between four binding partners: 1) biotinylated PIP3, 2) GST tagged pleckstrin homology (PH) domain, 3) Europium labeled anti-GST monoclonal antibody, and 4) Streptavidin-Allophycocyanin (APC). The native PIP3 produced by PI 3-Kinase activity displaces biotin-PIP3 from the PH domain, resulting in the dissociation of the HTRF complex and a decrease in the fluorescence signal. The format of this assay is the same for all 4 isoforms of PI3K; the differences lie in the concentration of enzyme used to achieve the most robust signal. The alpha and delta assays are run at 400 pM enzyme; the beta assay is at 200 pM enzyme and the gamma assay is run at 1 nM enzyme. In addition, the alpha, beta and delta assays are run with 150 mM NaCl while the gamma assay is run in the absence of NaCl. The ATP concentration is 100 uM in the alpha, beta, and delta assays and 15 uM ATP in the gamma assay. All reactions are run at 10 uM PIP2
Compounds were serially diluted (3-fold in 100% DMSO) across a 384-well polypropylene mother plate from column 1 to column 12 and column 13 to column 24, to yield 11 concentrations for each test compound. Columns 6 and 18 contain only DMSO. Once titrations were made, 0.05 μL was transferred to a 384-well low-volume assay plate (Greiner 784076). This assay plate contained three pharmacological controls (known PI3K inhibitors) and 3 assay controls: (1) Enzyme without inhibitor; (2) Buffer minus enzyme, and (3) Buffer minus enzyme plus native PIP3. DMSO was stamped into all wells of columns 6 and 18. PIP3 was added at 40 μM in 1× Reaction buffer (1 μL of 200 μM PIP3) to alternating rows of column 18 (wells 18 B, D, F, H, J, L, N, P). The no-enzyme control reactions were run in wells 18 A, C, E, G, I, K, M, O (0.1 μL of 100% DMSO).
The PI3-Kinase profiling assay was optimized using the HTRF kit provided by Upstate (Millipore). The assay kit contained seven reagents: 1) 4× Reaction Buffer; 2) native PIP2 (substrate); 3) Stop A (EDTA); 4) Stop B (Biotin-PIP3); 5) Detection Mix A (Streptavidin-APC); 6) Detection Mix B (Eu-labeled Anti-GST plus GST-tagged PH-domain); 7) Detection Mix C (KF). In addition, the following items were obtained or purchased: PI3Kinase (prepared by GSK BR&AD), dithiothreitol (Sigma, D-5545), Adenosine-5′-triphosphate (ATP, Teknova cat. #A0220), native PIP3 (1,2-dioctanoyl-sn-glycero-3-[phosphoinositil-3,4,5-triphosphate]tetraammonium salt (Avanti polar lipids, 850186P), DMSO (Sigma, 472301).
PI3Kinase Reaction Buffer was prepared by diluting the stock 1:4 with de-ionized water. Freshly prepared DTT was added at a final concentration of 5 mM on the day of use. Enzyme addition and compound pre-incubation were initiated by the addition of 2.5 μL of PI3K (at twice its final concentration) in 1× reaction buffer to all wells using a Multidrop Combi. Plates were incubated at room temperature for 15 minutes. Reactions were initiated by addition of 2.5 μL of 2× substrate solution (PIP2 and ATP in 1× reaction buffer) using a Multidrop Combi. Plates were incubated at room temperature for one hour. Reactions were quenched by the addition of 2.5 μL of stop solution (Stop A and Stop B pre-mixed at a ratio of 5:1, respectively) to all wells using the Multidrop Combi.

T1 sequence (P42338 whole entry): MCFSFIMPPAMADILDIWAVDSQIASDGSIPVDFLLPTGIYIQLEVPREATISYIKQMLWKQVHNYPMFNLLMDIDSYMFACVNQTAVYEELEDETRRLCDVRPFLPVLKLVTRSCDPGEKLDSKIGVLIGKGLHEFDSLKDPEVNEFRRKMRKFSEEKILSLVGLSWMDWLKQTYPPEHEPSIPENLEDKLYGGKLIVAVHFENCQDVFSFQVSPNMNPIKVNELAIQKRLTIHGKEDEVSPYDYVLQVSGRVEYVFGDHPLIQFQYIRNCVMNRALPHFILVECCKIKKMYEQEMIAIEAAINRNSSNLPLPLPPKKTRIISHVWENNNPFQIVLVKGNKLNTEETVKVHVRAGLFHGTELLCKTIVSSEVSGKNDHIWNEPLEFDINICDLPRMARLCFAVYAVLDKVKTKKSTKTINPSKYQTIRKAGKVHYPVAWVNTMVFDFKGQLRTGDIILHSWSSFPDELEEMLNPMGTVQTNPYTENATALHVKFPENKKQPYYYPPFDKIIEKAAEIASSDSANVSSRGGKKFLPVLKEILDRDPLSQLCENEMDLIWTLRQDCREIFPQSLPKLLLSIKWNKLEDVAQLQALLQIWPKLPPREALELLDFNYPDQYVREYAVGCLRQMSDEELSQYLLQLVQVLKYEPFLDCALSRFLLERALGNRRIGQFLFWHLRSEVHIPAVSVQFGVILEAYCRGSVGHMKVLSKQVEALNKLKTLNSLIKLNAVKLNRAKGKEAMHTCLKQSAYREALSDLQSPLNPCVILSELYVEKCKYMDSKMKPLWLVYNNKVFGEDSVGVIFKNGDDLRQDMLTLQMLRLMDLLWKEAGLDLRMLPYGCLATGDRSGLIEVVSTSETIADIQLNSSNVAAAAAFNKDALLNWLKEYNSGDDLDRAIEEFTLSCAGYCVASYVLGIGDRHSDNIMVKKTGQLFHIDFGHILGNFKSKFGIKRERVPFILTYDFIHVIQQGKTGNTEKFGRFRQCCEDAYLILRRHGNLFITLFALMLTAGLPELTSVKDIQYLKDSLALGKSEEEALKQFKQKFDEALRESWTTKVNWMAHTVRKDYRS
T1 sequence (P27986 whole entry partner): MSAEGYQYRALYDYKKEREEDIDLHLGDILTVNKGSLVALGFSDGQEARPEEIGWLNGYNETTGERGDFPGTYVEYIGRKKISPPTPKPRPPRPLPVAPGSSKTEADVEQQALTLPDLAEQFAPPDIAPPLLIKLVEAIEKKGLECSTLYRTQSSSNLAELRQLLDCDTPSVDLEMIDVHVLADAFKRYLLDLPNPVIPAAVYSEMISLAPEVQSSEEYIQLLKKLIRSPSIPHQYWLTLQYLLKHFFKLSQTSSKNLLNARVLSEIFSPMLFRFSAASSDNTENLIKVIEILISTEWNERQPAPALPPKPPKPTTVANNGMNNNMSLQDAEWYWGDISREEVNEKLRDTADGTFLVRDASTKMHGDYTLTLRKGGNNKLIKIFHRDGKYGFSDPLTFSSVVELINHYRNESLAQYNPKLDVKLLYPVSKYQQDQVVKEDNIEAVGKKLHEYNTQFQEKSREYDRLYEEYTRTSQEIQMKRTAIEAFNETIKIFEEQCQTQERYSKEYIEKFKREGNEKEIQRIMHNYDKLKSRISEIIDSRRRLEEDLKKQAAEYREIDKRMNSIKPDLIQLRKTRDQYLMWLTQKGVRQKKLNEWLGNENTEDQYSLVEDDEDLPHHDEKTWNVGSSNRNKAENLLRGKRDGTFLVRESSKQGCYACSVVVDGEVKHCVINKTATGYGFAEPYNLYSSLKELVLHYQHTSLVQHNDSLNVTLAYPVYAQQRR

On to `CCc1nc2c(O)cc(N3CCOCC3)cc2n1Cc1cccc(Cl)c1Cl` [Example 14, 1-[(2,3-dichlorophenyl)methyl]-2-ethyl-6-(4-morpholinyl)-1H-benzimidazol-4-ol], for which the IC50 is 3.16 nM. As to `Cc1nc2c(C(=O)O)cc(N3CCOCC3)cc2n1Cc1cccc2ccccc12` [Example 20, 2-methyl-6-(4-morpholinyl)-1-(1-naphthalenylmethyl)-1H-benzimidazole-4-carboxylic acid], the IC50 is 6.31 nM.

Take `CC(=O)c1cc(N2CCOCC2)cc2c1nc(C)n2Cc1cccc2ccccc12` [Example 41, 1-[2-methyl-6-(4-morpholinyl)-1-(1-naphthalenylmethyl)-1H-benzimidazol-4-yl]ethanone]: the IC50 is 1.58 nM. As to `CCc1nc2c(F)cc(N3CCOCC3)cc2n1Cc1cccc(Cl)c1Cl` [Example 18, 1-[(2,3-dichlorophenyl)methyl]-2-ethyl-4-fluoro-6-(4-morpholinyl)-1H-benzimidazole], the IC50 was 10 nM. For `Cc1nc2c(C(=O)O)cc(N3CCOCC3)cc2n1Cc1ccc(Cl)c(Cl)c1` [Example 38, 1-[(3,4-dichlorophenyl)methyl]-2-methyl-6-(4-morpholinyl)-1H-benzimidazole-4-carboxylic acid], the IC50 is 100 nM.

For `Cc1c(Cn2c(C)nc3c(-c4nnc[nH]4)cc(N4CCOCC4)cc32)cccc1C(F)(F)F` [Example 39, 2-methyl-1-{[2-methyl-3-(trifluoromethyl)phenyl]methyl}-6-(4-morpholinyl)-4-(1H-1,2,4-triazol-3-yl)-1H-benzimidazole], the IC50 is 0.631 nM. For `Cc1c(Cn2c(C)nc3c(CO)cc(N4CCOCC4)cc32)cccc1C(F)(F)F` [Example 43, [2-methyl-1-{[2-methyl-3-(trifluoromethyl)phenyl]methyl}-6-(4-morpholinyl)-1H-benzimidazol-4-yl]methanol], the IC50 is 5.01 nM.

With `Cc1nc2c(F)cc(N3CCOCC3)cc2n1Cc1cccc2ccccc12` [Example 15, 4-fluoro-2-methyl-6-(4-morpholinyl)-1-(1-naphthalenylmethyl)-1H-benzimidazole], the IC50 is 1 nM. In the case of `Cc1nc2c(-c3nnc[nH]3)cc(N3CCOCC3)cc2n1Cc1cccc2ccccc12` [Example 25, 2-methyl-6-(4-morpholinyl)-1-(1-naphthalenylmethyl)-4-(1H-1,2,4-triazol-3-yl)-1H-benzimidazole], the IC50 is 0.251 nM. Consider `Cc1c(Cn2c(C)nc3c(Br)cc(N4CCOCC4)cc32)cccc1C(F)(F)F` [Example 63, 4-bromo-2-methyl-1-{[2-methyl-3-(trifluoromethyl)phenyl]methyl}-6-(4-morpholinyl)-1H-benzimidazole], for which the IC50 was 1 nM.

As to `O=C(O)c1cc(N2CCOCC2)cc2c1nc(C(F)(F)F)n2Cc1cccc2ccccc12` [Example 50, 6-(4-morpholinyl)-1-(1-naphthalenylmethyl)-2-(trifluoromethyl)-1H-benzimidazole-4-carboxylic acid], the IC50 is 1.26 nM.

Take `Cc1c(Cl)cccc1Cn1c(C(F)F)nc2c(C(=O)O)cc(N3CCOCC3)cc21` [Example 72, 1-[(3-chloro-2-methylphenyl)methyl]-2-(difluoromethyl)-6-(4-morpholinyl)-1H-benzimidazole-4-carboxylic acid]: the IC50 was 1.58 nM. `Cc1nc2c(O)cc(N3CCOCC3)cc2n1Cc1cccc2ccccc12` [Example 5, 2-methyl-6-(4-morpholinyl)-1-(1-naphthalenylmethyl)-1H-benzimidazol-4-ol]: the IC50 is 1.58 nM.

Turning to `Cc1nc2c(C#N)cc(N3CCOCC3)cc2n1Cc1cccc(Cl)c1Cl` [Example 32, 1-[(2,3-dichlorophenyl)methyl]-2-methyl-6-(4-morpholinyl)-1H-benzimidazole-4-carbonitrile], the IC50 was 12.6 nM. Consider `CC(C)c1nc2c(O)cc(N3CCOCC3)cc2n1Cc1cccc(Cl)c1Cl` [Example 13, 1-[(2,3-dichlorophenyl)methyl]-2-(1-methylethyl)-6-(4-morpholinyl)-1H-benzimidazol-4-ol], for which the IC50 was 7.94 nM. For `Cc1c(Cl)cccc1Cn1c(C(F)(F)F)nc2c(C(=O)O)cc(N3CCOCC3)cc21` [Example 53, 1-[(3-chloro-2-methylphenyl)methyl]-6-(4-morpholinyl)-2-(trifluoromethyl)-1H-benzimidazole-4-carboxylic acid], the IC50 is 0.501 nM. Take `Cc1c(Cn2c(C(F)(F)F)nc3c(C(N)=O)cc(N4CCOCC4)cc32)cccc1C(F)(F)F` [Example 54, 1-{[2-methyl-3-(trifluoromethyl)phenyl]methyl}-6-(4-morpholinyl)-2-(trifluoromethyl)-1H-benzimidazole-4-carboxamide]: the IC50 was 2.51 nM. Consider `Cc1nc2c(-c3nnn[nH]3)cc(N3CCOCC3)cc2n1Cc1cccc2ccccc12` [Example 58, 2-methyl-6-(4-morpholinyl)-1-(1-naphthalenylmethyl)-4-(1H-tetrazol-5-yl)-1H-benzimidazole], for which the IC50 is 6.31 nM. Consider `Cc1nc2c(C(=O)O)cc(N3CCOCC3)cc2n1Cc1cccc2ccsc12` [Example 73, 1-(1-benzothien-7-ylmethyl)-2-methyl-6-(4-morpholinyl)-1H-benzimidazole-4-carboxylic acid], for which the IC50 was 25.1 nM. To `Cc1nc2c(C(=O)O)cc(N3CCOCC3)cc2n1Cc1cccc(Cl)c1Cl` [Example 22, 1-[(2,3-dichlorophenyl)methyl]-2-methyl-6-(4-morpholinyl)-1H-benzimidazole-4-carboxylic acid] belongs 15.8 nM; to `Cc1c(Cn2c(C(F)F)nc3c(C(=O)O)cc(N4CCOCC4)cc32)cccc1C(F)(F)F` [Example 70, 2-(difluoromethyl)-1-{[2-methyl-3-(trifluoromethyl)phenyl]methyl}-6-(4-morpholinyl)-1H-benzimidazole-4-carboxylic acid], 0.2 nM; to `Cc1c(Cl)cccc1Cn1c(C)nc2c(C(=O)O)cc(N3CCOCC3)cc21` [Example 59, 1-[(3-chloro-2-methylphenyl)methyl]-2-methyl-6-(4-morpholinyl)-1H-benzimidazole-4-carboxylic acid], 6.31 nM. `CCc1nc2c(F)cc(N3CCOCC3)cc2n1Cc1cccc2ccccc12` [Example 17, 2-ethyl-4-fluoro-6-(4-morpholinyl)-1-(1-naphthalenylmethyl)-1H-benzimidazole]: the IC50 is 2.51 nM.

With `Cc1nc2c(C(=O)O)cc(N3CCOCC3)cc2n1Cc1cccc2cccnc12` [Example 35, 2-methyl-6-(4-morpholinyl)-1-(8-quinolinylmethyl)-1H-benzimidazole-4-carboxylic acid], the IC50 was 63.1 nM. With `CC(=O)Nc1cc(N2CCOCC2)cc2c1nc(C)n2Cc1cccc2ccccc12` [Example 3, N-(2-Methyl-6-morpholin-4-yl-1-naphthalen-1-ylmethyl-1H-benzoimidazol-4-yl)-acetamide], the IC50 was 200 nM. Take `CC(C)c1nc2c(O)cc(N3CCOCC3)cc2n1Cc1cccc2ccccc12` [Example 11, 2-(1-methylethyl)-6-(4-morpholinyl)-1-(1-naphthalenylmethyl)-1H-benzimidazol-4-ol]: the IC50 is 2 nM.

The values above are taken from patent US8541411B2, “Benzimidazole derivatives as PI3 kinase inhibitors” (GlaxoSmithKline LLC, priority 2010, dated 2013).
